Patent publication US7824718B2, “Extract of Dioscorea opposita thunb showing neuronal cell-protecting activity for treating memory loss” (Tong Yang Moolsan Co., Ltd., priority 2005, dated 2010)

Test system: primary cultures of rat cortical neurons
Experiment: Cell protective activity against glutamate induced-neurotoxicity (MTT assay)
Type: cell-based, Sprague-Dawley rats
Description: The extracts of Dioscorea opposita were suspended in DMSO (Sigma Co., Ltd) and diluted to the extent that the final concentration reaches to <0.1%. Each suspension was filtered with 0.22 μm membrane filter (Millipore Co., Ltd.) to sterilize. After the concentrations of each fractions were adjusted to 100 μg/ml and 10 μg/ml, The test samples with various final concentration of various fractions were named as follows: 100 μg/ml of hexane layer (H100), 10 μg/ml of hexane layer (H10), 100 μg/ml of water layer (W100), 10 μg/ml of water layer (W10), 100 μg/ml of ethyl-acetate layer (E100), 10 μg/ml of ethylacetate layer (E10), 100 μg/ml of chloroform layer (C100), 10 μg/ml of chloroform layer (C10), 100 μg/ml of butanol layer (B100), 10 μg/ml of butanol layer (B10) respectively. The cultured cell was pretreated with each test sample 1 hour before the glutamate treatment and the protective activity of D. opposita against the death of cerebral cortex cells was assessed.
The tested fractions were dissolved in DMSO and diluted to the extent that the final concentration reaches to <0.1%. The matured cerebral cortex cells for 15 days were pretreated with the test fractions for 1 hour and then exposed to 100 μM glutamate. After further incubation for 24 hour, the neuronal survival was quantified using by MTT assay, which yields blue formazan products in living cells.

## C[C@]12N[C@H](Cc3ccccc31)c1ccccc12 [MK801]
MK801 positive control in Table 1, concentration not given
  Protection activity (%): 79%
Positive control at 10 μM, P<0.0001
  Relative protection: 80.6±1.6%
